This is an account of results in US20250368633A1, “AZEPINE FUSED RING COMPOUND AS RIPK1 INHIBITOR AND USE THEREOF” (ARTIVILA BIOPHARMA, priority 2022, published 2025).

In assay [1] the test system is U937 cells. Put plainly: Inhibition rate of compound (1 μM) on necroptosis of U937 cells (TSZ-induced, CellTiter-Glo). It is filed as cell-based. Particulars: TSZ (hTNF-α, SM-164, Z-VAD-FMK) 20 hours. Put shortly: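 Percent inhibition comes from ATP luminescence (CellTiter-Glo), referenced to wells without TSZ and wells with TSZ alone. The compound was added to U937 cells 15 min ahead of a TNF-α/SM-164/Z-VAD-FMK mix, followed by 20 h culture at 37° C, 5% CO2.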

Assay [2] relates to U937 cells. Put plainly: EC50 of necroptosis inhibition in U937 cells (TSZ-induced, CellTiter-Glo). It is filed as cell-based. The note with it: Homo sapiens, U-937; TSZ (hTNF-α, SM-164, Z-VAD-FMK) 20 hours; 10 concentration points; read-out: EC50 intervals of necroptosis inhibition in U937 cells. Put shortly:
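Luminescent ATP readout (CellTiter-Glo) after 20 h gave viability of TSZ-challenged U937 cells; compounds were added 15 min ahead of TNF-α/SM-164/Z-VAD-FMK. EC50 derived by variable-slope nonlinear regression of inhibition relative to no-TSZ and TSZ-alone controls.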
On the technique in general: In ATP-based viability assays light output follows the ATP content of the culture.

With `CN1C(=O)[C@@H](NC(=O)C(=O)NCCc2ccccc2)COc2ccc(C#CCCNS(C)(=O)=O)cc21` [Example 51, (S)—N^1-(5-methyl-7-(4-(methylsulfonamido)but-1-yn-1-yl)-4-oxo-2,3,4,5-tetrahydrobenzo[b][1,4]oxazepin-3-yl)-N^2-phenethyloxalamide], the “Inhibition rate range of compounds (1 μM) on U937 cell necroptosis” value (“Inhibition rate range of compounds” below) in the assay on U937 cells [1] is recorded as “A (A: ≥90%)”. For the same compound, the EC50 (usually the concentration that produces a half-maximal response) in the assay on U937 cells [2] was below 0.1 µM.

For the compound `COCC#Cc1ccc2c(c1)N(C)C(=O)[C@@H](NC(=O)C(=O)NCCc1ccccc1)CO2` [Example 52, (S)—N^1-(7-(3-methoxyprop-1-yn-1-yl)-5-methyl-4-oxo-2,3,4,5-tetrahydrobenzo[b][1,4]oxazepin-3-yl)-N^2-phenethyloxalamide], the “Inhibition rate range of compounds” value with U937 cells [1] was “A (A: ≥90%)”. Also, in the assay on U937 cells [2], the EC50 was below 0.1 µM.

For `CN1C(=O)C(NC(=O)C(=O)NCCc2ccccc2)CCc2ccc(Br)cc21` (stereo not shown) [Example 61, N^1-(8-bromo-1-methyl-2-oxo-2,3,4,5-tetrahydro-1H-benzo[b]azepin-3-yl)-N^2-phenethyloxalamide], the “Inhibition rate range of compounds” value in the assay on U937 cells [1] was “A (A: ≥90%)”. In the assay on U937 cells [2], the EC50 is below 0.1 µM.

`CN1C(=O)C(NC(=O)C(=O)NCCc2ccccc2)CCc2ccc(C#CC3CC3)cc21` (stereo not shown) [Example 62, N^1-(8-(cyclopropylethynyl)-1-methyl-2-oxo-2,3,4,5-tetrahydro-1H-benzo[b]azepin-3-yl)-N^2-phenethyloxalamide]: the “Inhibition rate range of compounds” value in the assay with U937 cells [1] is reported as “A (A: ≥90%)”. The EC50 in the assay with U937 cells [2] was below 0.1 µM.

`CN1C(=O)C(NC(=O)C(=O)NCCc2ccccc2)CCc2ccc(C#CCCO)cc21` (stereo not shown) [Example 65, N^1-(8-(4-hydroxybut-1-yn-1-yl)-1-methyl-2-oxo-2,3,4,5-tetrahydro-1H-benzo[b]azepin-3-yl)-N^2-phenethyloxalamide]: the “Inhibition rate range of compounds” value in the assay with U937 cells [1] is “A (A: ≥90%)”. Moreover, in the assay on U937 cells [2], the concentration for a half-maximal effect (EC50) is below 0.1 µM.

For `CN1C(=O)C(NC(=O)C(=O)NCCc2ccccc2)CCc2ccc(C#CC3CCNCC3)cc21` (stereo not shown) [Example 66, N^1-(1-methyl-2-oxo-8-(piperidin-4-ylethynyl)-2,3,4,5-tetrahydro-1H-benzo[b]azepin-3-yl)-N^2-phenethyloxalamide], in the assay with U937 cells [1], the “Inhibition rate range of compounds” value is on record as “A (A: ≥90%)”. Moreover, the EC50 in the assay on U937 cells [2] is below 0.1 µM.

As for `CN1C(=O)[C@@H](NC(=O)C(=O)NCCc2ccccc2)COc2ccc(C#CC3CCN(CC#N)CC3)cc21` [Example 74, (S)—N^1-(7-((1-(cyanomethyl)piperidin-4-yl)ethynyl)-5-methyl-4-oxo-2,3,4,5-tetrahydrobenzo[b][1, 4]oxazepin-3-yl)-N^2-phenethyloxalamide], the “Inhibition rate range of compounds” value in the assay with U937 cells [1] is “A (A: ≥90%)”. For the same compound, the EC50 in the assay with U937 cells [2] was below 0.1 µM.

With `CN1C(=O)[C@@H](NC(=O)C(=O)NCCc2ccccc2)COc2ccc(C#CC3COC3)cc21` [Example 76, (S)—N^1-(5-methyl-7-(oxetan-3-ylethynyl)-4-oxo-2,3,4,5-tetrahydrobenzo[b][1,4]oxazepin-3-yl)-N^2-phenethyloxalamide], the “Inhibition rate range of compounds” value in the assay on U937 cells [1] is “A (A: ≥90%)”. The EC50 in the assay with U937 cells [2] is below 0.1 µM.

Take `CN1C(=O)[C@H](NC(=O)C(=O)NCCc2ccccc2)COc2ccc(C#CC3(O)COC3)cc21` [Example 77, (R)—N^1-(7-((3-hydroxyoxetan-3-yl)ethynyl)-5-methyl-4-oxo-2,3,4,5-tetrahydrobenzo[b][1,4]oxazepin-3-yl)-N^2-phenethyloxalamide]: in the assay on U937 cells [1], the “Inhibition rate range of compounds” value is “A (A: ≥90%)”. For the same compound, the EC50 in the assay with U937 cells [2] was below 0.1 µM.

Consider `COC1(C#Cc2ccc3c(c2)N(C)C(=O)[C@@H](NC(=O)C(=O)NCCc2ccccc2)CO3)COC1` [Example 78, (S)—N^1-(7-((3-methoxyoxetan-3-yl)ethynyl)-5-methyl-4-oxo-2,3,4,5-tetrahydrobenzo[b][1,4]oxazepin-3-yl)-N^2-phenethyloxalamide], for which, in the assay with U937 cells [1], the “Inhibition rate range of compounds” value was “A (A: ≥90%)”. For the same compound, in the assay with U937 cells [2], the EC50 is below 0.1 µM.

`CN1C(=O)[C@@H](NC(=O)C(=O)NCCc2ccccc2)COc2ccc(C#CCC3(O)COC3)cc21` [Example 79, (S)—N^1-(7-(3-(3-hydroxyoxetan-3-yl)prop-1-yn-1-yl)-5-methyl-4-oxo-2,3,4,5-tetrahydrobenzo[b][1,4]oxazepin-3-yl)-N^2-phenethyloxalamide]: in the assay on U937 cells [1], the “Inhibition rate range of compounds” value is “A (A: ≥90%)”. For the same compound, the EC50 in the assay on U937 cells [2] is below 0.1 µM.

In the case of `CN1C(=O)[C@@H](NC(=O)C(=O)NCCc2ccccc2)COc2ccc(C#CC3(O)CCOC3)cc21` (stereo partly drawn) [Example 80, N^1-((3S)-7-((3-hydroxytetrahydrofuran-3-yl)ethynyl)-5-methyl-4-oxo-2,3,4,5-tetrahydrobenzo[b][1,4]oxazepin-3-yl)-N^2-phenethyloxalamide], the “Inhibition rate range of compounds” value in the assay with U937 cells [1] was “A (A: ≥90%)”. The EC50 in the assay with U937 cells [2] is below 0.1 µM.

`CN1C(=O)[C@@H](NC(=O)C(=O)NCCc2ccccc2)COc2ccc(C#CCN3CCC(O)CC3)cc21` [Example 81, (S)—N^1-(7-(3-(4-hydroxypiperidin-1-yl)prop-1-yn-1-yl)-5-methyl-4-oxo-2,3,4,5-tetrahydrobenzo[b][1,4]oxazepin-3-yl)-N^2-phenethyloxalamide]: the “Inhibition rate range of compounds” value with U937 cells [1] was “A (A: ≥90%)”. Besides, the EC50 with U937 cells [2] is below 0.1 µM.

As to `CN1C(=O)[C@@H](NC(=O)C(=O)NCCc2ccccc2)COc2ccc(C#CCN3C(=O)CCC3=O)cc21` [Example 84, (S)—N^1-(7-(3-(2,5-dioxopyrrolidin-1-yl)prop-1-yn-1-yl)-5-methyl-4-oxo-2,3,4,5-tetrahydrobenzo[b][1,4]oxazepin-3-yl)-N^2-phenethyloxalamide], in the assay with U937 cells [1], the “Inhibition rate range of compounds” value was “A (A: ≥90%)”. Besides, the EC50 in the assay with U937 cells [2] is below 0.1 µM.

With `CN1C(=O)[C@@H](NC(=O)C(=O)NCCc2ccccc2)COc2ccc(C#CCN3CCNC(=O)C3)cc21` [Example 85, (S)—N^1-(5-methyl-4-oxo-7-(3-(3-oxopiperazin-1-yl)prop-1-yn-1-yl)-2,3,4,5-tetrahydrobenzo[b][1, 4]oxazepin-3-yl)-N^2-phenethyloxalamide], the “Inhibition rate range of compounds” value with U937 cells [1] is “B (B: 50-89%)”. Further, in the assay on U937 cells [2], the EC50 is below 0.1 µM.

As to `CN1C(=O)[C@@H](NC(=O)C(=O)NCCc2ccccc2)COc2ccc(C#CCNC(=O)OC(C)(C)C)cc21` [Example 86, tert-butyl (S)-(3-(5-methyl-4-oxo-3-(2-oxo-2-(phenethylamino)acetamido)-2,3,4,5-tetrahydrobenzo[b][1,4]oxazepin-7-yl)prop-2-yn-1-yl)carbamate], the “Inhibition rate range of compounds” value with U937 cells [1] is “A (A: ≥90%)”. Also, the EC50 in the assay with U937 cells [2] was below 0.1 µM.

For `CN1C(=O)[C@@H](NC(=O)C(=O)NCCc2ccccc2)COc2ccc(C#CCNC(=O)CO)cc21` [Example 88, (S)—N^1-(7-(3-(2-hydroxyacetamido)prop-1-yn-1-yl)-5-methyl-4-oxo-2,3,4,5-tetrahydrobenzo[b][1, 4]oxazepin-3-yl)-N^2-phenethyloxalamide], the “Inhibition rate range of compounds” value in the assay on U937 cells [1] is “A (A: ≥90%)”. Also, the EC50 with U937 cells [2] is below 0.1 µM.
